target: T1, mGlyT-1b (Mus musculus, UniProt P28571); assay: Glycine uptake inhibition assay (mGlyT-1b); type: cell-based; conditions: inhibition of [3H]-glycine uptake in Flp-in-CHO cells transfected with mGlyT-1b cDNA
T1 construct: host or cells: Flp-in-CHO
T1 sequence (P28571 1-651 isoform P28571-2): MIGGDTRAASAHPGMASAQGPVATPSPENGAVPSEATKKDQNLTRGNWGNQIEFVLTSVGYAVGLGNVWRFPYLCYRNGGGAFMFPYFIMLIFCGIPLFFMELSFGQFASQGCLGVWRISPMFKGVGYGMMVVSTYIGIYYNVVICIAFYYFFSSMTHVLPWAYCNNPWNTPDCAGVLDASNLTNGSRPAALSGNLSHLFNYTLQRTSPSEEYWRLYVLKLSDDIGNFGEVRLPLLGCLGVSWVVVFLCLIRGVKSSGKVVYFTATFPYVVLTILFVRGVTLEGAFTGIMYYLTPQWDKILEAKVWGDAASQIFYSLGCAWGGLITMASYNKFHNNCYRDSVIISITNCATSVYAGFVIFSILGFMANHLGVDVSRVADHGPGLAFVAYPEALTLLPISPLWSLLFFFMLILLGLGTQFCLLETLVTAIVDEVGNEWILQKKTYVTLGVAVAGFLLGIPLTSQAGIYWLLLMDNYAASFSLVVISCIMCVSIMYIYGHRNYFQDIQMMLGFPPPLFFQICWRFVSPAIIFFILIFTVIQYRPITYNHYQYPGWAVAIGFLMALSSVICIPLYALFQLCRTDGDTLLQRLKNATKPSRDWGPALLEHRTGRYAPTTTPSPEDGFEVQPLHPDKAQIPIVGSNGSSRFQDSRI
Protocol: DMEM complete medium: Nutrient mixture F-12 (Gibco Life-technologies), fetal bovine serum (FBS) 5%, (Gibco life technologies), Penicillin/Streptomycin 1% (Gibco life technologies), Hygromycin 0.6 mg/ml (Gibco life technologies), Glutamine 1 mM Gibco life technologies)
Uptake buffer (UB): 150 mM NaCl, 10 mM Hepes-Tris, pH 7.4, 1 mM CaCl2, 2.5 mM KCl, 2.5 mM MgSO4, 10 mM (+) D-glucose. Flp-in™-CHO (Invitrogen Cat n° R758-07)cells stably transfected with mGlyT1b cDNA.
Glycine Uptake Inhibition Assay (mGlyT-1b)
On day 1 mammalian cells, (Flp-in™-CHO), transfected with mGlyT-1b cDNA, were plated at the density of 40,000 cells/well in complex F-12 medium, without hygromycin in 96-well culture plates. On day 2, the medium was aspirated and the cells were washed twice with uptake buffer (UB). The cells were then incubated for 20 min at 22° C. with either (i) no potential competitor, (ii) 10 mM non-radioactive glycine, (iii) a concentration of a potential inhibitor. A range of concentrations of the potential inhibitor was used to generate data for calculating the concentration of inhibitor resulting in 50% of the effect (e.g. IC50, the concentration of the competitor inhibiting glycine uptake of 50%). A solution was then immediately added containing [^3H]-glycine 60 nM (11-16 Ci/mmol) and 25 μM non-radioactive glycine. The plates were incubated with gentle shaking and the reaction was stopped by aspiration of the mixture and washing (three times) with ice-cold UB. The cells were lysed with scintillation liquid, shaken 3 hours and the radioactivity in the cells was counted using a scintillation counter.

SMILES	IC50 [nM]
CC(C)COc1ccc(S(C)(=O)=O)cc1C(=O)N1CCN(c2nc3ccccc3o2)CC1 [Example 1.5, (4-Benzoxazol-2-yl-piperazin-1-yl)-(2-isobutoxy-5-methanesulfonyl-phenyl)-methanone]	144
CC(C)Oc1ccc(S(C)(=O)=O)cc1C(=O)N1CCN(c2nc3c([N+](=O)[O-])cccc3s2)CC1 [Example 1.12, (2-Isopropoxy-5-methanesulfonyl-phenyl)-[4-(4-nitro-benzothiazol-2-yl)-piperazin-1-yl]-methanone]	375
CC(C)Oc1ccc(S(C)(=O)=O)cc1C(=O)N1CCN(c2nc3c(O)cccc3s2)CC1 [Example 1.13, [4-(4-Hydroxy-benzothiazol-2-yl)-piperazin-1-yl]-(2-isopropoxy-5-methanesulfonyl-phenyl)-methanone]	158
CCOc1ccc2nc(N3CCN(C(=O)c4cc(S(C)(=O)=O)ccc4OC(C)C)CC3)sc2c1 [Example 1.15, [4-(6-Ethoxy-benzothiazol-2-yl)-piperazin-1-yl]-(2-isopropoxy-5-methanesulfonyl-phenyl)-methanone]	339
Cc1nc2cc(N3CCN(C(=O)c4cc(S(C)(=O)=O)ccc4OCC(C)C)CC3)ccc2s1 [Example 1.17, (2-Isobutoxy-5-methanesulfonyl-phenyl)-[4-(2-methyl-benzothiazol-5-yl)-piperazin-1-yl]-methanone]	440
CC(C)COc1ccc(S(C)(=O)=O)cc1C(=O)N1CCN(c2ccc3ccccc3n2)CC1 [Example 1.19, (2-Isobutoxy-5-methanesulfonyl-phenyl)-(4-quinolin-2-yl-piperazin-1-yl)-methanone]	78
CS(=O)(=O)c1ccc(OC2CCCC2)c(C(=O)N2CCN(c3ccc4cc(Cl)ccc4n3)CC2)c1 [Example 1.22, [4-(6-Chloro-quinolin-2-yl)-piperazin-1-yl]-(2-cyclopentyloxy-5-methanesulfonyl-phenyl)-methanone]	399
CC(C)COc1ccc(S(C)(=O)=O)cc1C(=O)N1CCN(c2cnc3ccccc3n2)CC1 [Example 1.23, (2-Isobutoxy-5-methanesulfonyl-phenyl)-(4-quinoxalin-2-yl-piperazin-1-yl)-methanone]	167
CC(C)COc1ccc(S(C)(=O)=O)cc1C(=O)N1CCN(c2cnc3ccccc3c2)CC1 [Example 1.27, (2-Isobutoxy-5-methanesulfonyl-phenyl)-(4-quinolin-3-yl-piperazin-1-yl)-methanone]	82
CC(C)Oc1ccc(S(C)(=O)=O)cc1C(=O)N1CCN(c2nsc3ccccc23)CC1 [Example 1.29, (4-Benzo [d]isothiazol-3-yl-piperazin-1-yl)-(2-isopropoxy-5-methanesulfonyl-phenyl) -methanone]	500
CS(=O)(=O)c1ccc(OCC2CC2)c(C(=O)N2CCN(c3nc4ccc(Cl)cc4s3)CC2)c1 [Example 1.39, [4-(6-Chloro-benzothiazol-2-yl)-piperazin-1-yl]-(2-cyclopropylmethoxy-5-methanesulfonyl-phenyl)-methanone]	230

The remaining compounds from weak to strong by IC50, led by results:

IC50 [nM]	SMILES
467	O=C(c1cc([N+](=O)[O-])ccc1N1CCOCC1)N1CCN(c2nsc3ccccc23)CC1 [Example 1.31, (4-Benzo[d]isothiazol-3-yl-piperazin-1-yl)-(2-morpholin-4-yl-5-nitro-phenyl) -methanone]
398	CC(C)Oc1ccc(S(C)(=O)=O)cc1C(=O)N1CCN(c2nc3ccc(Cl)cc3s2)CC1 [Example 1.2, [4-(6-Chloro-benzothiazol-2-yl)-piperazin-1-yl]-(2-isopropoxy-5-methanesulfonyl-phenyl)-methanone]
287	CC(C)Oc1ccc(S(C)(=O)=O)cc1C(=O)N1CCN(c2cnc3ccccc3n2)CC1 [Example 1.24, (2-Isopropoxy-5-methanesulfonyl-phenyl)-(4-quinoxalin-2-yl-piperazin-1-yl)-methanone]
271	O=C(c1cc([N+](=O)[O-])ccc1N1CCOCC1)N1CCN(c2nc3ccc(Cl)cc3s2)CC1 [Example 1.1, [4-(6-Chloro-benzothiazol-2-yl)-piperazin-1-yl]-(2-morpholin-4-yl-5-nitro-phenyl) -methanone]
218	CC(C)Oc1ccc(S(C)(=O)=O)cc1C(=O)N1CCN(c2nc3cc(Cl)ccc3s2)CC1 [Example 1.14, [4-(5-Chloro-benzothiazol-2-yl)-piperazin-1-yl]-(2-isopropoxy-5-methanesulfonyl-phenyl)-methanone]
206	CC(C)Oc1ccc(S(C)(=O)=O)cc1C(=O)N1CCN(c2nc3ccc([N+](=O)[O-])cc3s2)CC1 [Example 1.9, (2-Isopropoxy-5-methanesulfonyl-phenyl)-[4-(6-nitro-benzothiazol-2-yl)-piperazin-1-yl]-methanone]
174	COc1ccc2nc(N3CCN(C(=O)c4cc(S(C)(=O)=O)ccc4OC(C)C)CC3)sc2c1 [Example 1.8, (2-Isopropoxy-5-methanesulfonyl-phenyl)-[4-(6-methoxy-benzothiazol-2-yl)-piperazin-1-yl]-methanone]
149	CS(=O)(=O)c1ccc(OC2CCCC2)c(C(=O)N2CCN(c3cnc4ccccc4c3)CC2)c1 [Example 1.28, (2-Cyclopentyloxy-5-methanesulfonyl-phenyl)-(4-quinolin-3-yl-piperazin-1-yl)-methanone]
148	COc1cccc2sc(N3CCN(C(=O)c4cc(S(C)(=O)=O)ccc4OC(C)C)CC3)nc12 [Example 1.11, (2-Isopropoxy-5-methanesulfonyl-phenyl)-[4-(4-methoxy-benzothiazol-2-yl)-piperazin-1-yl]-methanone]
97	CS(=O)(=O)c1ccc(OC2CCCC2)c(C(=O)N2CCN(c3nc4ccccc4o3)CC2)c1 [Example 1.4, (4-Benzoxazol-2-yl-piperazin-1-yl)-(2-cyclopentyloxy-5-methanesulfonyl-phenyl)-methanone]
67	CS(=O)(=O)c1ccc(OC2CCCC2)c(C(=O)N2CCN(c3cnc4ccccc4n3)CC2)c1 [Example 1.25, (2-Cyclopentyloxy-5-methanesulfonyl-phenyl)-(4-quinoxalin-2-yl-piperazin-1-yl)-methanone]
55	C[C@H](Oc1ccc(S(C)(=O)=O)cc1C(=O)N1CCN(c2nsc3ccccc23)CC1)C(F)(F)F [Example 1.33, (4-Benzo[d]isothiazol-3-yl-piperazin-1-yl)-[5-methanesulfonyl-2-((S)-2,2,2-trifluoro-1-methyl-ethoxy)-phenyl]-methanone]
39	C[C@H](Oc1ccc(S(C)(=O)=O)cc1C(=O)N1CCN(c2nc3ccc(Cl)cc3s2)CC1)C(F)(F)F [Example 1.40, [4-(6-Chloro-benzothiazol-2-yl)-piperazin-1-yl]-[5-methanesulfonyl-2-((S)-2,2,2-trifluoro-1methyl-ethoxy)-phenyl]-methanone]

From patent US7429585B2, “Phenyl-piperazine methanone derivatives, substituted by heterocyclic groups” (Hoffmann-La Roche, priority 2004, dated 2008)
